Broadly, the IC50 is the concentration that gives 50% inhibition.

Results on 21 compounds are retold here after patent publication US9637453B2, “3-spirocyclic-6-hydroxamic acid tetralins as HDAC inhibitors” (Forma Therapeutics, Inc., priority 2015, dated 2017).

In assay [1] the target is T1, Full length human recombinant HDAC11 (Homo sapiens, UniProt Q96DB2).
T1 construct: Full length human recombinant HDAC6 and HDAC11 proteins were expressed in baculoviral system
T1 sequence (Q96DB2 1-347): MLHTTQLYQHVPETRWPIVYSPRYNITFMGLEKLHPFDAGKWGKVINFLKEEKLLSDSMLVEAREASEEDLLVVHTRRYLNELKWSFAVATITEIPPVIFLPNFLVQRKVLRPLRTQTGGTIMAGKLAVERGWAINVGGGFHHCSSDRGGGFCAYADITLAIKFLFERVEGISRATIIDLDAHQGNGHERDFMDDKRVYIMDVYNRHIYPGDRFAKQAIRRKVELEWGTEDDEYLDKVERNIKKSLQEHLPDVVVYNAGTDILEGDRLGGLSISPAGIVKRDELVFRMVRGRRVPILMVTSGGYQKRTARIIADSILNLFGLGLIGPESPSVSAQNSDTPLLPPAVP
Description: In vitro histone deacetylase assay, enzymatic HDAC11 (electrophoretic mobility shift assay). It counts as biochemical. The settings on record: 10 nM HDAC11; 2 μM peptide substrate FAM-RHKK(tri-fluor-Ac)—NH2; 25° C.; 12 concentrations; read-out: HDAC11 Activity Range (IC50). In a few lines: (§1)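 Baculovirus-expressed full-length enzymes (HDAC6 1 nM, FAM-RHKK(Ac)-NH2; HDAC11 10 nM, FAM-RHKK(tri-fluor-Ac)-NH2), 2 μM substrate, HEPES pH 7.5, 25°C, 12-point 3× dilutions. Product/substrate separated by microfluidic mobility shift after SDS quench; IC50 from 4-parameter fit, reported as +/++/+++ bins.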
In general terms: Mobility shift assays separate free from complexed probe on a gel.

Assay [2] concerns the target T2, Full length human recombinant HDAC6 (Homo sapiens, UniProt Q9UBN7).
T2 construct: Full length human recombinant HDAC6 and HDAC11 proteins were expressed in baculoviral system
T2 sequence (Q9UBN7 1-1215): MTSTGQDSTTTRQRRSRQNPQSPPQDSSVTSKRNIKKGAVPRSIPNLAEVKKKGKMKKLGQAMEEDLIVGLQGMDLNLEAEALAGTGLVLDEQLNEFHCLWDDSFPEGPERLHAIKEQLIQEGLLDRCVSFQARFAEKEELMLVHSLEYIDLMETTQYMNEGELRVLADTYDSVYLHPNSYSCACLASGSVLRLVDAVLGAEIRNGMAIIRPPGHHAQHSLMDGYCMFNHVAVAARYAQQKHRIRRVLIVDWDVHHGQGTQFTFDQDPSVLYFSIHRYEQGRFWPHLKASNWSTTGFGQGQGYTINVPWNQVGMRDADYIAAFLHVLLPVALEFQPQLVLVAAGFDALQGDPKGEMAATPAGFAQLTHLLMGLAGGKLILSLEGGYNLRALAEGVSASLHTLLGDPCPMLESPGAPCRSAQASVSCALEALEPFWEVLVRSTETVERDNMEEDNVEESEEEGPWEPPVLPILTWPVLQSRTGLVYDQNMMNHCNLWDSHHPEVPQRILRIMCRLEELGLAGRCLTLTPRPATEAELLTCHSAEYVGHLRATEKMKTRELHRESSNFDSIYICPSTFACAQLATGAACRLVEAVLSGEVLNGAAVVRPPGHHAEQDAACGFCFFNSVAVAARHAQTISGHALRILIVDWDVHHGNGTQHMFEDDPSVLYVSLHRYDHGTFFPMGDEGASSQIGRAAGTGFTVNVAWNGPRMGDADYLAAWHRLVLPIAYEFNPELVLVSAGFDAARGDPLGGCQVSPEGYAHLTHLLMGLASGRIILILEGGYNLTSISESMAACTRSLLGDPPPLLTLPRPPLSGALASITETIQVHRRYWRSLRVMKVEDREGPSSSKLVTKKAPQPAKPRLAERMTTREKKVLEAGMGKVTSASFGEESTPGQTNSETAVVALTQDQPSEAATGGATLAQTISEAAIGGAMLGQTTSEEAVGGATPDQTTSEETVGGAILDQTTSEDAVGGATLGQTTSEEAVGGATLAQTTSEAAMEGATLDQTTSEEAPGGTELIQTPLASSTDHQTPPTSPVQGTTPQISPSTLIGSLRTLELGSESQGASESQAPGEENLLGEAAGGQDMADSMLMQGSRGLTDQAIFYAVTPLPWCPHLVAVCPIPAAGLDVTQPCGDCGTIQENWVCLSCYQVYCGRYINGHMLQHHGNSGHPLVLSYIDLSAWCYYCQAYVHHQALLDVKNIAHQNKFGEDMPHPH
As to the kind of experiment: In vitro histone deacetylase assay, enzymatic HDAC6 (electrophoretic mobility shift assay). It counts as biochemical. Particulars: 1 nM HDAC6; 2 μM peptide substrate FAM-RHKK(Ac)—NH2; 25° C.; 12 concentrations; read-out: HDAC6 Activity Range (IC50). In short, it runs like this:
as §1

As for `COc1ccc(CCN2CCC3(CCc4ccc(C(=O)NO)cc4C3)C2=O)cc1` (stereo not drawn) [Compound I-20, N-hydroxy-1′-(4-methoxyphenethyl)-2′-oxo-3,4-dihydro-1H-spiro[naphthalene-2,3′-pyrrolidine]-7-carboxamide], the IC50 was 0.1 to 0.5 µM in assay [1] and no more than 0.1 µM in assay [2].
Consider `O=C(NO)c1ccc2c(c1)C[C@@]1(CC2)CCN(c2ccc(Oc3ccccc3)cc2)C1=O` [Compound I-116, (S)—N-hydroxy-2′-oxo-1′-(4-phenoxyphenyl)-3,4-dihydro-1H-spiro[naphthalene-2,3′-pyrrolidine]-7-carboxamide], for which the IC50 was greater than 0.5 µM in assay [1] and no more than 0.1 µM in assay [2].
For `COCCN1CC[C@@]2(CCc3ccc(C(=O)NO)cc3C2)C1=O` [Compound I-56, (S)—N-hydroxy-1′-(2-methoxyethyl)-2′-oxo-3,4-dihydro-1H-spiro[naphthalene-2,3′-pyrrolidine]-7-carboxamide] the same measures were greater than 0.5 µM and no more than 0.1 µM.
For `O=C(NO)c1ccc2c(c1)C[C@@]1(CC2)CCN(Cc2cc(Cl)ccc2Cl)C1=O` [Compound I-67, (S)-1′-(2,5-dichlorobenzyl)-N-hydroxy-2′-oxo-3,4-dihydro-1H-spiro[naphthalene-2,3′-pyrrolidine]-7-carboxamide] the same measures were greater than 0.5 µM and 0.1 to 0.5 µM.
On the same counts, the results for `CC#CCN1CC[C@@]2(CCc3ccc(C(=O)NO)cc3C2)C1=O` [Compound I-55, (S)-1′-(but-2-yn-1-yl)-N-hydroxy-2′-oxo-3,4-dihydro-1H-spiro[naphthalene-2,3′-pyrrolidine]-7-carboxamide] are greater than 0.5 µM and no more than 0.1 µM.
As for `COCCn1c(CN2CC[C@@]3(CCc4ccc(C(=O)NO)cc4C3)C2=O)nc2ccccc21` [Compound I-45, (S)—N-hydroxy-1′-((1-(2-methoxyethyl)-1H-benzo[d]imidazol-2-yl)methyl)-2′-oxo-3,4-dihydro-1H-spiro[naphthalene-2,3′-pyrrolidine]-7-carboxamide], the IC50 was greater than 0.5 µM in assay [1] and no more than 0.1 µM in assay [2].
On the same counts, the results for `COCCn1c(CN2CC[C@]3(CCc4ccc(C(=O)NO)cc4C3)C2=O)nc2ccccc21` [Compound I-46, (R)—N-hydroxy-1′-((1-(2-methoxyethyl)-1H-benzo[d]imidazol-2-yl)methyl)-2′-oxo-3,4-dihydro-1H-spiro[naphthalene-2,3′-pyrrolidine]-7-carboxamide] are 0.1 to 0.5 µM and no more than 0.1 µM.
On to `O=C(NO)c1ccc2c(c1)C[C@@]1(CC2)CCN(c2ccccc2)C1` [Compound I-16, (S)—N-hydroxy-1′-phenyl-3,4-dihydro-1H-spiro[naphthalene-2,3′-pyrrolidine]-7-carboxamide], for which the results for the half-maximal inhibitory concentration (IC50) in assay [1] and in assay [2] were greater than 0.5 µM and no more than 0.1 µM, respectively.
In the case of `O=C(NO)c1ccc2c(c1)C[C@]1(CC2)CCN(Cc2cccc(F)c2)C1=O` [Compound I-99, (R)-1′-(3-fluorobenzyl)-N-hydroxy-2′-oxo-3,4-dihydro-1H-spiro[naphthalene-2,3′-pyrrolidine]-7-carboxamide], the IC50 in assay [1] and in assay [2] was no more than 0.1 µM in each case.
As to `O=C(NO)c1ccc2c(c1)C[C@@]1(CC2)CCN(c2cccnc2)C1=O` [Compound I-28, (S)—N-hydroxy-2′-oxo-1′-(pyridin-3-yl)-3,4-dihydro-1H-spiro[naphthalene-2,3′-pyrrolidine]-7-carboxamide], the IC50 was 0.1 to 0.5 µM in assay [1] and no more than 0.1 µM in assay [2].
For `COc1ccccc1CN1CC[C@]2(CCc3ccc(C(=O)NO)cc3C2)C1=O` [Compound I-93, (R)—N-hydroxy-1′-(2-methoxybenzyl)-2′-oxo-3,4-dihydro-1H-spiro[naphthalene-2,3′-pyrrolidine]-7-carboxamide] the same measures were 0.1 to 0.5 µM and no more than 0.1 µM.
Regarding `COc1ccc(CN2CC[C@@]3(CCc4ccc(C(=O)NO)cc4C3)C2=O)cc1` [Compound I-75, (S)—N-hydroxy-1′-(4-methoxybenzyl)-2′-oxo-3,4-dihydro-1H-spiro[naphthalene-2,3′-pyrrolidine]-7-carboxamide], the IC50 in assay [1] is greater than 0.5 µM; in assay [2], no more than 0.1 µM.
On the same counts, the results for `CN1CC[C@@]2(CCc3ccc(C(=O)NO)cc3C2)C1=O` [Compound I-121, (S)—N-hydroxy-1′-methyl-2′-oxo-3,4-dihydro-1H-spiro[naphthalene-2,3′-pyrrolidine]-7-carboxamide] are greater than 0.5 µM and no more than 0.1 µM.
On the same counts, the results for `O=C(NO)c1ccc2c(c1)C[C@@]1(CC2)CCN(c2nc3ccccc3[nH]2)C1=O` [Compound I-31, (S)-1′-(1H-benzo[d]imidazol-2-yl)-N-hydroxy-2′-oxo-3,4-dihydro-1H-spiro[naphthalene-2,3′-pyrrolidine]-7-carboxamide] are greater than 0.5 µM and no more than 0.1 µM.
As to `O=C(NO)c1ccc2c(c1)C[C@@]1(CC2)CCN(Cc2ccccn2)C1=O` [Compound I-71, (S)—N-hydroxy-2′-oxo-1′-(pyridin-2-ylmethyl)-3,4-dihydro-1H-spiro[naphthalene-2,3′-pyrrolidine]-7-carboxamide], the results for the concentration for half-maximal inhibition (IC50) in assay [1] and in assay [2] were greater than 0.5 µM and no more than 0.1 µM, respectively.
As to `O=C(NO)c1ccc2c(c1)C[C@@]1(CC2)CCN(Cc2ccc(OC(F)(F)F)cc2)C1=O` [Compound I-73, (S)—N-hydroxy-2′-oxo-1′-(4-(trifluoromethoxy)benzyl)-3,4-dihydro-1H-spiro[naphthalene-2,3′-pyrrolidine]-7-carboxamide], the half-inhibitory concentration (IC50) was greater than 0.5 µM in assay [1] and no more than 0.1 µM in assay [2].
For `CC(C)N1CCC2(CCc3ccc(C(=O)NO)cc3C2)C1=O` (stereo not drawn) [Compound I-24, N-hydroxy-1′-isopropyl-2′-oxo-3,4-dihydro-1H-spiro[naphthalene-2, 3′-pyrrolidine]-7-carboxamide] the same measures were greater than 0.5 µM and 0.1 to 0.5 µM.
On the same counts, the results for `COc1ccccc1CN1CCC2(CCc3ccc(C(=O)NO)cc3C2)C1` (stereo not drawn) [Compound I-15, N-hydroxy-1′-(2-methoxybenzyl)-3,4-dihydro-1H-spiro[naphthalene-2,3′-pyrrolidine]-7-carboxamide] are greater than 0.5 µM and no more than 0.1 µM.
In the case of `O=C(NO)c1ccc2c(c1)C[C@]1(CC2)CCN(Cc2ccccc2F)C1=O` [Compound I-103, (R)-1′-(2-fluorobenzyl)-N-hydroxy-2′-oxo-3,4-dihydro-1H-spiro[naphthalene-2,3′-pyrrolidine]-7-carboxamide], the IC50 in assay [1] and in assay [2] was no more than 0.1 µM each time.
In the case of `COc1ccc(CN2CCC3(CCc4ccc(C(=O)NO)cc4C3)C2)cc1` (stereo not drawn) [Compound I-3, N-hydroxy-1′-(4-methoxybenzyl)-3,4-dihydro-1H-spiro[naphthalene-2,3′-pyrrolidine]-7-carboxamide], the IC50 in assay [1] is greater than 0.5 µM; in assay [2], 0.1 to 0.5 µM.
For `CCN1C[C@@]2(CCc3ccc(C(=O)NO)cc3C2)CC1=O` [Compound I-142, (R)-1′-ethyl-N-hydroxy-5′-oxo-3,4-dihydro-1H-spiro[naphthalene-2,3′-pyrrolidine]-7-carboxamide] the same measures were greater than 0.5 µM and no more than 0.1 µM.
